The source of these data is patent US12636274B2, “Pharmaceutical compositions and methods for systemic treatment of solid tumors” (7 HILLS INTERESTS LLC, priority 2014, dated 2026).

The target of the test is T1, α4β7/MAcDAM-1 (Homo sapiens, UniProt P13612+P26010).
T1 sequence (P13612 34-1032): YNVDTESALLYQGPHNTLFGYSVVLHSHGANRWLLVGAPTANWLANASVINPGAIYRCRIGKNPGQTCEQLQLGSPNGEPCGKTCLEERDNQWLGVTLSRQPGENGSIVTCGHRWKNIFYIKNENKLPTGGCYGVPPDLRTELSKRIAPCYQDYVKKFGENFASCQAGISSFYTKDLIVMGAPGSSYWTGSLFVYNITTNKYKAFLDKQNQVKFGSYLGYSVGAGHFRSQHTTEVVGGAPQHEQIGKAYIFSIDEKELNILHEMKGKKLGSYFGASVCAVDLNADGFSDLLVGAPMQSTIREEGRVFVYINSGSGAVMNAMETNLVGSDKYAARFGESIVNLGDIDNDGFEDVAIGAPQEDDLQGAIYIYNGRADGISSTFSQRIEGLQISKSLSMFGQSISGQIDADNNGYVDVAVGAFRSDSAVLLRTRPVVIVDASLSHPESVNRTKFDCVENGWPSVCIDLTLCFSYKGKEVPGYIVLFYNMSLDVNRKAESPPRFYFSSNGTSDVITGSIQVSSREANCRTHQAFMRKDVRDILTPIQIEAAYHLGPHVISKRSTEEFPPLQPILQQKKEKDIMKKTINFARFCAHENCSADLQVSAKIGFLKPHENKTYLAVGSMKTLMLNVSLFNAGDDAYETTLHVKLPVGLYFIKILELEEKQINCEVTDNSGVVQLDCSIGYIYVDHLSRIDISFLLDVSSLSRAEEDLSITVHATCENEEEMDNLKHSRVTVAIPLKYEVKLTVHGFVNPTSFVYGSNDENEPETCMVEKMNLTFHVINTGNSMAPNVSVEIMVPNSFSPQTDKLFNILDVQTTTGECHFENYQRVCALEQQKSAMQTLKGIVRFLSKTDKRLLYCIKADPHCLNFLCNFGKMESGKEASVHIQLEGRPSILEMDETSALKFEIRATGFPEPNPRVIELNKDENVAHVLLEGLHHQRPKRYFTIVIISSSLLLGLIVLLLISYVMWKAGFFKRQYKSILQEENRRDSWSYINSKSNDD
T1 sequence (P26010 20-798): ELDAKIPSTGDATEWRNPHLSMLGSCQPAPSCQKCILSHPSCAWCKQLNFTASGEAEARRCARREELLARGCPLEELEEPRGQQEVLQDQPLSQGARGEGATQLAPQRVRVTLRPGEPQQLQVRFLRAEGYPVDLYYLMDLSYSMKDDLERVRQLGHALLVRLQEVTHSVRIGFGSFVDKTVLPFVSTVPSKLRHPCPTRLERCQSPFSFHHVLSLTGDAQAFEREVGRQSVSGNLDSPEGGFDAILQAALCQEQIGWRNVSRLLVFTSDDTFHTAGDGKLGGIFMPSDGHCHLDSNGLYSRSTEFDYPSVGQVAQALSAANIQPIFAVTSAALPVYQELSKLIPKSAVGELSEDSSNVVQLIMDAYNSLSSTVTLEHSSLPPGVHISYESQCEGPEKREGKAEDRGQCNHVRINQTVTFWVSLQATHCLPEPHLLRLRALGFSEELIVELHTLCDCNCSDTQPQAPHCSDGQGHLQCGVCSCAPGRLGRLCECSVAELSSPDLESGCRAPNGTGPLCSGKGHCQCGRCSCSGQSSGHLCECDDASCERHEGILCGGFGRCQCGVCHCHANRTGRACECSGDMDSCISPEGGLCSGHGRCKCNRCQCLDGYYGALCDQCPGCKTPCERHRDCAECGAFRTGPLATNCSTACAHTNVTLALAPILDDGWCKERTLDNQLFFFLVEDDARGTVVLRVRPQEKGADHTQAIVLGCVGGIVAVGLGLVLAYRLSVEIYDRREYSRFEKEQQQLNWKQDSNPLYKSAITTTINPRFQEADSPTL
The test can be described thus: Integrin activation, adhesion α4β7/MAcDAM-1. Format: cell-based. Particulars: 50% serum; n = 3; read-out: Integrin Selectivity EC50 α4β7/MAcDAM-1. The source says:
Activating all integrins is necessary for firm endothelial cell adhesion for extravasation.

`O=C(OCCOCCOCCOC(=O)N(Cc1cccs1)Cc1cccs1)N(Cc1cccs1)Cc1cccs1` [Compound 1, 3-oxo-1-(2-thienyl)-2-(2-thienylmethyl)-4,7,10-trioxa-2-azadodecan-12-yl bis(2-thienylmethyl)carbamate]: the EC50 came out at 10 ± 2.1 µM.
